In one assay the target is T1, MCT1 (Homo sapiens, UniProt P53985).
T1 construct: gene SLC16A1
T1 sequence (P53985 1-500): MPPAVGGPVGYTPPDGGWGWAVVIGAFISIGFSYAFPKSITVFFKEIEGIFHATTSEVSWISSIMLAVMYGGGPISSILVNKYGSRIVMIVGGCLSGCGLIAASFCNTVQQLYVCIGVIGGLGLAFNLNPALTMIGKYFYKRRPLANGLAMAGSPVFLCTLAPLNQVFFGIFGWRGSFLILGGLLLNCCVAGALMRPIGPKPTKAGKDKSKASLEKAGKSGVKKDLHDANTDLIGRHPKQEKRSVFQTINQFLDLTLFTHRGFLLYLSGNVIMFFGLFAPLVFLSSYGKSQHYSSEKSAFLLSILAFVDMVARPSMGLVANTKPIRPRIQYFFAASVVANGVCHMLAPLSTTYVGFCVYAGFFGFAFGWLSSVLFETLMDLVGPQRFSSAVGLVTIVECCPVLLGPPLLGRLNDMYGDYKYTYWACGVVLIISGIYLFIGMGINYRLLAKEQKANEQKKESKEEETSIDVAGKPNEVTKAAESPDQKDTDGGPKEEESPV
Description: SPA competition binding, […]-MCT1 ligand displacement on Jurkat cell membranes; also Ki […] on recombinant human MCT1 yeast membranes. As to conditions: read-out: AZD3965.

Another assay addresses T2, MCT2 (Homo sapiens, UniProt O60669).
T2 construct: gene SLC16A7
As to conditions: read-out: AZD3965.

T2 sequence (O60669 whole entry): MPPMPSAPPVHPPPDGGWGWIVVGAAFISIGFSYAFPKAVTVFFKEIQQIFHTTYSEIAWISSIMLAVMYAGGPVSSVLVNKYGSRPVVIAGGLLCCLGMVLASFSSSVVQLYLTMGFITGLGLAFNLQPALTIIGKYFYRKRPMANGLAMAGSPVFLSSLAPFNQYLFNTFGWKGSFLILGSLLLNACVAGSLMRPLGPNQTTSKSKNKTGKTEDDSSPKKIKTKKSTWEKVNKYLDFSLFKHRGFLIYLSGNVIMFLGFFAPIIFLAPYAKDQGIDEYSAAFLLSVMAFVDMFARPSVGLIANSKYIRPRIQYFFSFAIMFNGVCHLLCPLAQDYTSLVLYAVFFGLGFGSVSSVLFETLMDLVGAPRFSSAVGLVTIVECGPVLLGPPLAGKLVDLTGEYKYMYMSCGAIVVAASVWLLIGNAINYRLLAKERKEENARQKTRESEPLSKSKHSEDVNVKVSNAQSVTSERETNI

`Cc1[nH]nc(C(F)(F)F)c1Cc1sc2c(c1C(=O)N1C[C@](C)(O)CO1)c(=O)n(C)c(=O)n2C(C)C` [AZD3965]: the Ki on MCT1 is 1.6 nM; at MCT2, 20 nM.

For the origin of these results see paper PMC5642474, “Pre-clinical pharmacology of AZD3965, a selective inhibitor of MCT1: DLBCL, NHL and Burkitt’s lymphoma anti-tumor activity” (Oncotarget, 2017).
